Test results published in patent publication US8927544B2, “Benzofuran-2-sulfonamides derivatives as chemokine receptor modulators” (Allergan, Inc., priority 2012, dated 2015).
Read-outs that look alike come from different tables or passages of the source.

Biological target: T1, CCR2 (Homo sapiens, UniProt P41597)
T1 construct: expressed in transfected cells
Assay: compound-induced calcium activity on the FLIPR Tetra in HEK-Gqi5 cells stably expressing CCR2
Format: cell-based
Procedure: HEK-Gqi5 cells stably expressing CCR2 were cultured in DMEM high glucose, 10% FBS, 1% PSA, 400 μg/ml geneticin and 50 μg/ml hygromycin. Appropriate positive control chemokines (MCP-1, MIP1A or RANTES) was used as the positive control agonist for screening compound-induced calcium activity assayed on the FLIPR^Tetra. The drug plates were prepared in 384-well microplates using the EP3 and the MultiPROBE robotic liquid handling systems. Compounds were synthesized and tested for CCR2 activity.

[1] = HEK-Gqi5 cells stably expressing CCR2, calcium activity, FLIPR Tetra
[2] = HEK-Gqi5 cells stably expressing CCR2, calcium activity, FLIPR Tetra, read-out: CCR2 IC50

T1 sequence (P41597 whole entry, species assumed): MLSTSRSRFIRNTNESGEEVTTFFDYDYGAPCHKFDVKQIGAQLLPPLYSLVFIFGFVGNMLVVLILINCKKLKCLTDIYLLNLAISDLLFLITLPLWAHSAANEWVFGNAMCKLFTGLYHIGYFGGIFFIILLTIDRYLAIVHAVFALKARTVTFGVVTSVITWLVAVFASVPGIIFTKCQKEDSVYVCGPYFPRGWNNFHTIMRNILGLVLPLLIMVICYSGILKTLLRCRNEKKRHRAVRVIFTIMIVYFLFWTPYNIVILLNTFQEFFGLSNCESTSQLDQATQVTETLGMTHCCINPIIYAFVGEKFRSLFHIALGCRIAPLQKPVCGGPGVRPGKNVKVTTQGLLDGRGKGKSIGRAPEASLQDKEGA

Compound | CCR2 ANTAGONISM (%) [1] [%] | IC50 [2] [nM] | IC50 [nM]
O=C(O)c1ccccc1COc1ccc(Cl)cc1NS(=O)(=O)c1cc2ccccc2o1 [Compound 31, 2-({2-[(1-Benzofuran-2-ylsulfonyl)amino]-4-chlorophenoxy}methyl)benzoic Acid] | 99 | 27 | –
O=S(=O)(Nc1cc(Cl)ccc1C#Cc1ccccc1)c1cc2ccccc2o1 [Compound 21, N-[5-Chloro-2-(phenylethynyl)phenyl]-1-benzofuran-2-sulfonamide] | 30 | – | –
O=S(=O)(Nc1cc(Cl)ccc1OC(F)(F)F)c1cc2ccccc2o1 [Compound 3, N-[5-Chloro-2-(trifluoromethoxy)phenyl]-1-benzofuran-2-sulfonamide] | 95 | 195 | –
O=S(=O)(Nc1cc(Cl)ccc1OCc1ccccc1)c1cc2ccccc2o1 [Compound 20, N-[2-(Benzyloxy)-5-chlorophenyl]-1-benzofuran-2-sulfonamide] | 87 | 1630 | –
O=S(=O)(Nc1cc(F)ccc1S(=O)(=O)c1ccccc1)c1cc2ccccc2o1 [Compound 29, N-[5-Fluoro-2-(phenylsulfonyl)phenyl]-1-benzofuran-2-sulfonamide] | 82 | 2620 | –
O=C(Nc1ccccc1)c1ccc(Cl)cc1NS(=O)(=O)c1cc2ccccc2o1 [Compound 15, 2-[(1-Benzofuran-2-ylsulfonyl)amino]-4-chloro-N-phenylbenzamide] | 95 | 328 | –
O=S(=O)(Nc1cc(Cl)ccc1S(=O)(=O)c1ccccc1)c1cc2ccccc2o1 [Compound 13, N-[5-Chloro-2-(phenylsulfonyl)phenyl]-1-benzofuran-2-sulfonamide] | 78 | 1970 | –
CCOc1ccc(Cl)cc1NS(=O)(=O)c1cc2ccccc2o1 [Compound 5, N-(5-Chloro-2-ethoxyphenyl)-1-benzofuran-2-sulfonamide] | 73 | 1660 | –
COc1ccc(Cl)cc1NS(=O)(=O)c1cc2ccccc2o1 [Compound 1, N-(5-Chloro-2-methoxyphenyl)benzofuran-2-sulfonamide] | 97 | 512 | –
CO/N=C(/Cc1ccccc1)c1ccc(Cl)cc1NS(=O)(=O)c1cc2ccccc2o1 [Compound 18, N-{5-Chloro-2-[(1Z)—N-methoxy-2-phenylethanimidoyl]phenyl}-1-benzofuran-2-sulfonamide] | 76 | – | –
O=S(=O)(Nc1cc(F)ccc1[S+]([O-])c1ccccc1)c1cc2ccccc2o1 (stereo not drawn) [Compound 28, N-[5-Fluoro-2-(phenylsulfinyl)phenyl]-1-benzofuran-2-sulfonamide] | 91 | 317 | –
Cc1ccc(S(=O)(=O)c2ccccc2)c(NS(=O)(=O)c2cc3ccccc3o2)c1 [Compound 26, N-[5-Methyl-2-(phenylsulfonyl)phenyl]-1-benzofuran-2-sulfonamide] | 38 | – | –
Cc1ccc(Sc2ccccc2)c(NS(=O)(=O)c2cc3ccccc3o2)c1 [Compound 24, N-[5-Methyl-2-(phenylsulfanyl)phenyl]-1-benzofuran-2-sulfonamide] | 41 | – | –
O=C(O)c1ccccc1Oc1ccc(Cl)cc1NS(=O)(=O)c1cc2ccccc2o1 [Compound 11, 2-{2-[(1-Benzofuran-2-ylsulfonyl)amino]-4-chlorophenoxy}benzoic acid] | 97 | 60 | –
O=S(=O)(Nc1cc(Cl)ccc1CCc1ccccc1)c1cc2ccccc2o1 [Compound 22, N-[5-Chloro-2-(2-phenylethyl)phenyl]-1-benzofuran-2-sulfonamide] | 84 | – | –
C#Cc1ccc(Cl)cc1NS(=O)(=O)c1cc2ccccc2o1 [Compound 6, N-(5-Chloro-2-ethynylphenyl)-1-benzofuran-2-sulfonamide] | 93 | 117 | –
O=S(=O)(Nc1cc(Cl)ccc1/C(Cc1ccccc1)=N\O)c1cc2ccccc2o1 [Compound 19, N-{5-Chloro-2-[(1Z)—N-hydroxy-2-phenylethanimidoyl]phenyl}-1-benzofuran-2-sulfonamide] | 72 | – | –
O=S(=O)(Nc1cc(F)ccc1Sc1ccccc1)c1cc2ccccc2o1 [Compound 27, N-[5-Fluoro-2-(phenylsulfanyl)phenyl]-1-benzofuran-2-sulfonamide] | 74 | – | –
O=S(=O)(Nc1cc(Cl)ccc1[S+]([O-])c1ccccc1)c1cc2ccccc2o1 (stereo not drawn) [Compound 14, N-[5-Chloro-2-(phenylsulfinyl)phenyl]-1-benzofuran-2-sulfonamide] | 105 | 6 | –
O=S(=O)(Nc1cc(Cl)ccc1Sc1ccccc1)c1cc2ccccc2o1 [Compound 12, N-[5-Chloro-2-(phenylsulfanyl)phenyl]-1-benzofuran-2-sulfonamide] | 90 | 124 | –
N#Cc1ccc(Cl)cc1NS(=O)(=O)c1cc2ccccc2o1 [Compound 16, N-(5-Chloro-2-cyanophenyl)-1-benzofuran-2-sulfonamide] | 102 | 409 | –
Cc1ccc(Cl)cc1NS(=O)(=O)c1cc2ccccc2o1 [Compound 2, N-(5-Chloro-2-methylphenyl)-1-benzofuran-2-sulfonamide] | 84 | 359 | –
O=C(c1ccc(Cl)cc1NS(=O)(=O)c1cc2ccccc2o1)N1CCOCC1 [Compound 8, N-[5-Chloro-2-(morpholin-4-ylcarbonyl)phenyl]-1-benzofuran-2-sulfonamide] | 84 | 569 | –
COC(=O)c1ccc(Cl)cc1NS(=O)(=O)c1cc2ccccc2o1 [Compound 4, Methyl 2-[(1-benzofuran-2-ylsulfonyl)amino]-4-chlorobenzoate] | 95 | 1380 | –
COC(=O)c1ccccc1Oc1ccc(Cl)cc1NS(=O)(=O)c1cc2ccccc2o1 [Compound 10, Methyl 2-{2-[(1-benzofuran-2-ylsulfonyl)amino]-4-chlorophenoxy}benzoate] | 98 | 1020 | –
O=C1CCN(C(=O)c2ccc(Cl)cc2NS(=O)(=O)c2cc3ccccc3o2)CC1 [Compound 7, N-{5-Chloro-2-[(4-oxopiperidin-1-yl)carbonyl]phenyl}-1-benzofuran-2-sulfonamide] | 93 | – | 110
Cc1ccc([S+]([O-])c2ccccc2)c(NS(=O)(=O)c2cc3ccccc3o2)c1 (stereo not drawn) [Compound 25, N-[5-Methyl-2-(phenylsulfinyl)phenyl]-1-benzofuran-2-sulfonamide] | 92 | 2880 | –
Cc1ncccc1Oc1ccc(Cl)cc1NS(=O)(=O)c1cc2ccccc2o1 [Compound 9, N-{5-Chloro-2-[(2-methylpyridin-3-yl)oxy]phenyl}-1-benzofuran-2-sulfonamide] | 96 | 365 | –
O=C(Cc1ccccc1)c1ccc(Cl)cc1NS(=O)(=O)c1cc2ccccc2o1 [Compound 17, N-[5-Chloro-2-(phenylacetyl)phenyl]-1-benzofuran-2-sulfonamide] | 79 | 183 | –
